According to the Deep4Chem optical property database:

Assay: photoluminescence quantum yield (fraction); solvent given as SMILES

Which results are given for `CN(C)c1ccc(C2=Nc3sc4ccccc4[n+]3[B-](F)(F)O2)cc1`?
photoluminescence quantum yield (in C1CCOC1): 0.78; photoluminescence quantum yield (in CC#N): 0.17; photoluminescence quantum yield (in CC(C)=O): 0.31; photoluminescence quantum yield (in Cc1ccccc1): 0.84; photoluminescence quantum yield (in ClCCl): 0.77

For `CCCCC1(CCCC)c2cc(C#Cc3ccc(C=C4c5ccccc5C=Cc5ccccc54)cc3)ccc2-c2ccc(C#Cc3ccc(C=C4c5ccccc5C=Cc5ccccc54)cc3)cc21`, which photoluminescence quantum yield (in C1CCOC1) is on record?
The photoluminescence quantum yield was 0.00084.

For `F[B-]1(F)n2cccc2C(c2ccccc2)=C2C=CC(c3ccc(OC4=[N+]5C(=C(c6ccccc6)c6cc(Br)c(Br)n6[B-]5(F)F)C=C4Br)cc3)=[N+]21`, which photoluminescence quantum yield (in ClC(Cl)Cl) is on record?
The photoluminescence quantum yield was 0.01.

For `Cc1ccc(N/C=C/C=[NH+]c2ccc(C)cc2)cc1`, which photoluminescence quantum yield (in CS(C)=O) is on record?
The photoluminescence quantum yield was 0.14.

Which results are given for `CCCOc1ccc(/C=C/C=C/C=C/c2ccc([N+](=O)[O-])cc2)cc1`?
photoluminescence quantum yield (in CC1CCCCC1): 0.25; photoluminescence quantum yield (in CC#N): 0.011; photoluminescence quantum yield (in Cc1ccccc1): 0.54; photoluminescence quantum yield (in ClCCl): 0.06

For `N#Cc1ccc(/C=C2\N=C(c3ccccc3)OC2=O)cc1`, which photoluminescence quantum yield (in C1COCCO1) is on record?
The photoluminescence quantum yield was 0.028.

For `C(C1=[NH+]c2cccc3cccc1c23)=c1[nH]c2cccc3cccc1c32`, which photoluminescence quantum yield (in CO) is on record?
Its photoluminescence quantum yield is 0.0103.

Which photoluminescence quantum yield (in C1CCOC1) does the source give for `CN(C)c1ccc(/C=C2\CC/C(=C\c3ccc(C#N)cc3)C2=O)cc1` here?
The photoluminescence quantum yield was 0.027.

And the photoluminescence quantum yield (in CC#N)?
The photoluminescence quantum yield was 0.0036.

And the photoluminescence quantum yield (in CC(C)=O)?
The photoluminescence quantum yield was 0.0095.

What about the photoluminescence quantum yield (in CC(C)O) of the same compound?
Its photoluminescence quantum yield is 0.026.

What about the photoluminescence quantum yield (in CCCCO) of the same compound?
Its photoluminescence quantum yield is 0.017.

And the photoluminescence quantum yield (in CCCCOC(C)=O)?
Its photoluminescence quantum yield is 0.14.

What about the photoluminescence quantum yield (in CCCO) of the same compound?
The photoluminescence quantum yield was 0.013.

And the photoluminescence quantum yield (in CCO)?
The photoluminescence quantum yield was 0.0061.

What about the photoluminescence quantum yield (in CCOC(=O)c1ccccc1) of the same compound?
Its photoluminescence quantum yield is 0.18.

What about the photoluminescence quantum yield (in CCOC(C)=O) of the same compound?
Its photoluminescence quantum yield is 0.09.

And the photoluminescence quantum yield (in CCOCC)?
Its photoluminescence quantum yield is 0.074.

What about the photoluminescence quantum yield (in CN(C)C=O) of the same compound?
The photoluminescence quantum yield was 0.0066.

What about the photoluminescence quantum yield (in CO) of the same compound?
Its photoluminescence quantum yield is 0.0027.

What about the photoluminescence quantum yield (in CS(C)=O) of the same compound?
Its photoluminescence quantum yield is 0.0074.

What about the photoluminescence quantum yield (in Cc1ccccc1) of the same compound?
Its photoluminescence quantum yield is 0.05.

And the photoluminescence quantum yield (in ClC(Cl)(Cl)Cl)?
The photoluminescence quantum yield was 0.019.

What about the photoluminescence quantum yield (in ClC(Cl)Cl) of the same compound?
The photoluminescence quantum yield was 0.3.

What about the photoluminescence quantum yield (in ClCCl) of the same compound?
The photoluminescence quantum yield was 0.17.

What about the photoluminescence quantum yield (in Clc1ccccc1Cl) of the same compound?
Its photoluminescence quantum yield is 0.29.

What about the photoluminescence quantum yield (in O=C1CCCC1) of the same compound?
Its photoluminescence quantum yield is 0.034.

What about the photoluminescence quantum yield (in S=C=S) of the same compound?
Its photoluminescence quantum yield is 0.034.

And the photoluminescence quantum yield (in c1ccccc1)?
Its photoluminescence quantum yield is 0.066.

And the photoluminescence quantum yield (in c1ccncc1)?
The photoluminescence quantum yield was 0.051.

For `O=S(=O)([O-])c1ccccc1/C=C/c1ccc(-c2nnc(-c3ccc(/C=C/c4ccccc4S(=O)(=O)[O-])cc3)o2)cc1`, which photoluminescence quantum yield (in C1CCOC1) is on record?
Its photoluminescence quantum yield is 0.22.

What about the photoluminescence quantum yield (in CC(C)=O) of the same compound?
The photoluminescence quantum yield was 0.17.

What about the photoluminescence quantum yield (in CN(C)C=O) of the same compound?
Its photoluminescence quantum yield is 0.75.

Which results are given for `CCOC(=O)COc1ccc(/C=C/C2=C3c4ccccc4C(c4[nH]c(C)cc4C)=[N+]3[B-](F)(F)n3c(C)cc(C)c32)cc1`?
photoluminescence quantum yield (in C1CCOC1): 0.012; photoluminescence quantum yield (in CC#N): 0.005; photoluminescence quantum yield (in CCCCCC): 0.013; photoluminescence quantum yield (in CO): 0.002; photoluminescence quantum yield (in Cc1ccccc1): 0.012; photoluminescence quantum yield (in ClCCl): 0.014

With `Cc1ccc(C2=C3C=CC(C#Cc4ccccc4)=[N+]3[B-](F)(F)n3c(Cl)ccc32)cc1` as the compound, how does the photoluminescence quantum yield (in C1CCCCC1) read?
Its photoluminescence quantum yield is 1.

What about the photoluminescence quantum yield (in C1CCOC1) of the same compound?
Its photoluminescence quantum yield is 0.84.

What about the photoluminescence quantum yield (in C1COCCO1) of the same compound?
Its photoluminescence quantum yield is 0.97.

What about the photoluminescence quantum yield (in CCOC(C)=O) of the same compound?
The photoluminescence quantum yield was 0.83.

And the photoluminescence quantum yield (in CO)?
Its photoluminescence quantum yield is 0.98.

What about the photoluminescence quantum yield (in Cc1ccccc1) of the same compound?
The photoluminescence quantum yield was 0.91.

What about the photoluminescence quantum yield (in ClC(Cl)Cl) of the same compound?
Its photoluminescence quantum yield is 0.95.

Which photoluminescence quantum yield (in ClCCl) does the source give for `F[B-]1(F)n2c(Oc3ccccc3)c(Cl)c3c2C(=C2C(Br)=C(Cl)C(Oc4ccccc4)=[N+]21)Oc1ccccc1-3` here?
The photoluminescence quantum yield was 0.99.

With `Cc1ccc(-c2ccc(C(=O)NC(C)(C)C)c3c2ccc2c4ccccc4c4ccccc4c23)cc1` as the compound, how does the photoluminescence quantum yield (in ClCCl) read?
Its photoluminescence quantum yield is 0.07.

With `c1ccc2cc(-c3c4ccccc4c(-c4ccc(-n5c6ccccc6c6ccccc65)cc4)c4ccccc34)ccc2c1` as the compound, how does the photoluminescence quantum yield (in ClCCl) read?
The photoluminescence quantum yield was 0.76.

Which photoluminescence quantum yield (in Cc1ccccc1) does the source give for `Fc1c(F)c(-n2c3ccccc3c3ccccc32)c(F)c(F)c1/C=C/c1ccc(C(=C(c2ccccc2)c2ccccc2)c2ccccc2)cc1` here?
The photoluminescence quantum yield was 0.003.

Which photoluminescence quantum yield (in ClCCl) does the source give for `CC(C)c1cccc(C(C)C)c1N1C(=O)c2ccc3c(-c4ccc(C(=O)O)cc4)c4c5ccc6c7c(ccc(c(-c8ccc(C(=O)O)cc8)c4c4ccc(c2c34)C1=O)c75)C(=O)N(c1c(C(C)C)cccc1C(C)C)C6=O` here?
Its photoluminescence quantum yield is 0.3.
